Source: ChEMBL document CHEMBL1201862, “PubChem BioAssay data set” (2004)
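Results reflect a 48-hour exposure of cells in 96-well plates to compound at five concentrations. GI50: concentration for 50% inhibition of growth.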 The source made the active and inactive calls. Cut-off read from the data, not from the text of the source: active = GI50 up to about 1.1 µM and inactive = higher.

How the values were obtained:
Assay in all cases: NCI tumour cell line growth inhibition, 48 h
A498 = system: A498
A549 = system: A549
COLO 205 = system: COLO 205
DMS-114 = system: DMS-114
HCC 2998 = system: HCC 2998
HCT-116 = system: HCT-116
HL-60 = system: HL-60
HOP-18 = system: HOP-18
HOP-62 = system: HOP-62
K562 = system: K562
OVCAR-8 = system: OVCAR-8
RXF 393 = system: RXF 393
SF-295 = system: SF-295
SK-MEL-28 = system: SK-MEL-28
UACC-257 = system: UACC-257
NCI-H226 = system: NCI-H226
OVCAR-4 = system: OVCAR-4
RPMI-8226 = system: RPMI-8226

Measured: GI50

COc1ccc(NC(=O)C2C(=O)N(c3ccc(OC)cc3)C(=O)/C2=N\N)cc1 (stereo unspecified)
inactive: A498 > 100 µM | A549 > 100 µM | COLO 205 > 100 µM | DMS-114 > 100 µM | HCC 2998 > 100 µM | HCT-116 > 100 µM | HL-60 > 100 µM | HOP-18 > 100 µM | HOP-62 > 100 µM | K562 65 µM | OVCAR-8 > 100 µM | RXF 393 > 100 µM | SF-295 > 100 µM | SK-MEL-28 > 100 µM | UACC-257 > 100 µM

Cc1ccc([N+](=O)[O-])cc1NC(=O)C(=O)Cc1cc(=O)oc2cc(O)ccc12
inactive: A498 > 100 µM | A549 > 100 µM | COLO 205 42.8 µM | DMS-114 18.5 µM | HCC 2998 > 100 µM | HCT-116 24.2 µM | HL-60 > 100 µM | HOP-18 > 100 µM | HOP-62 > 100 µM | K562 46.3 µM | NCI-H226 > 100 µM | OVCAR-4 > 100 µM | OVCAR-8 > 100 µM | RPMI-8226 32.1 µM | RXF 393 28.1 µM | SF-295 > 100 µM | SK-MEL-28 33.5 µM | UACC-257 > 100 µM

CC(=O)OCC1=C(CCC#N)N2C(=O)C(NC(=O)Cc3cccs3)C2[S+]([O-])C1 (stereo unspecified)
inactive: A498 > 100 µM | A549 > 100 µM | COLO 205 > 100 µM | DMS-114 > 100 µM | HCC 2998 > 100 µM | HCT-116 > 100 µM | HL-60 > 100 µM | HOP-18 > 100 µM | HOP-62 > 100 µM | K562 > 100 µM | NCI-H226 > 100 µM | OVCAR-4 > 100 µM | OVCAR-8 > 100 µM | RPMI-8226 > 100 µM | RXF 393 > 100 µM | SF-295 > 100 µM | SK-MEL-28 > 100 µM | UACC-257 > 100 µM

CSc1ccc(OCC2OC2O)cc1 (stereo unspecified)
inactive: A498 28.1 µM | A549 42.3 µM | COLO 205 16.5 µM | DMS-114 12.9 µM | HCC 2998 > 86.3 µM | HCT-116 17.3 µM | HL-60 27.3 µM | HOP-18 > 100 µM | HOP-62 > 100 µM | K562 52.8 µM | NCI-H226 36.8 µM | OVCAR-4 30.8 µM | OVCAR-8 55.6 µM | RPMI-8226 30.8 µM | RXF 393 > 63.7 µM | SF-295 41.1 µM | UACC-257 41.2 µM

Clc1ccc(SCCSCCCCCCCCCCSCCSc2ccc(Cl)cc2)cc1
inactive: A498 > 100 µM | A549 > 100 µM | COLO 205 > 100 µM | DMS-114 > 100 µM | HCC 2998 > 100 µM | HL-60 > 100 µM | HOP-18 > 100 µM | HOP-62 > 100 µM | K562 > 100 µM | NCI-H226 > 100 µM | OVCAR-8 > 100 µM | RPMI-8226 > 100 µM | RXF 393 > 100 µM | SF-295 > 100 µM | SK-MEL-28 > 100 µM | UACC-257 > 100 µM

c1ccc2c(c1)N=C(c1ccc3ccccc3c1)CC(c1cccc3ccccc13)S2 (stereo unspecified)
inactive: A498 27.5 µM | A549 48 µM | COLO 205 68.7 µM | DMS-114 24.3 µM | HCC 2998 15.1 µM | HL-60 15.1 µM | HOP-18 > 100 µM | HOP-62 85.5 µM | K562 17.2 µM | NCI-H226 45.4 µM | OVCAR-4 33.6 µM | OVCAR-8 37.9 µM | RPMI-8226 11.2 µM | RXF 393 40.4 µM | SF-295 47.1 µM | SK-MEL-28 83.4 µM | UACC-257 56.6 µM

CC1(C(=O)O)CCOc2ccccc21 (stereo unspecified)
inactive: A498 > 100 µM | A549 > 100 µM | COLO 205 > 100 µM | DMS-114 > 100 µM | HCC 2998 > 100 µM | HCT-116 > 100 µM | HL-60 > 100 µM | HOP-18 > 100 µM | HOP-62 > 100 µM | K562 > 100 µM | NCI-H226 > 100 µM | OVCAR-4 > 100 µM | OVCAR-8 > 100 µM | RPMI-8226 > 100 µM | RXF 393 > 100 µM | SF-295 > 100 µM | SK-MEL-28 > 100 µM | UACC-257 > 100 µM

COC(=O)/C([Se]c1c(C)cc(C)cc1C)=C(/[Se]c1c(C)cc(C)cc1C)C(=O)OC
inactive: A498 > 100 µM | A549 > 100 µM | COLO 205 > 100 µM | DMS-114 > 99.3 µM | HCC 2998 > 100 µM | HCT-116 > 100 µM | HL-60 > 100 µM | HOP-18 > 100 µM | HOP-62 > 100 µM | K562 > 100 µM | NCI-H226 > 100 µM | OVCAR-4 > 100 µM | OVCAR-8 > 100 µM | RPMI-8226 76 µM | RXF 393 > 100 µM | SF-295 > 100 µM | UACC-257 > 100 µM
